# Read-outs that look alike come from different tables or passages of the source.
# Assays:
# [1] = system: Nrf2 target genes (NQO1, HMOX1, GCLM, TXNRD1) in HFL1 lung fibroblasts; test: Nrf2 target gene mRNA (qPCR) in HFL1; assay type: cell-based, human; settings: HFL1, 18 h
# Method: HFL1 cells were cultured in F-12K media supplemented with 10% fetal bovine serum and 1% penicillin-streptomycin. BEAS-2B cells were cultured in DMEM/F-12 media supplemented with 10% fetal bovine serum and 1% penicillin-streptomycin. […] Each well received the same amount of vehicle. Following treatment, media was removed and cells were harvested using RLT buffer (Qiagen). Lysates were homogenized using QIAShredder columns (Qiagen, Catalog #79654) and RNA was isolated using RNeasy Mini kits (Qiagen, Catalog #74104). For reverse transcription, RNA (1 μg) was combined with Oligo(dT)12-18 primer and H2O in a final volume of 23.25 μL. The mixture was heated to 70° C. for 10 min and then placed on ice. A master mix containing 8 μL 5×1st strand buffer, 2 μL 1 mg/ml BSA, 2 μL 20 mM DTT, 4 μL 5 mM dNTP mix, 0.25 μL RNaseOUTTM and 0.5 μL […]® II reverse transcriptase was added to the RNA mixture and incubated at 42° C. for 1 h. The reaction was inactivated by heating to 70° C. for 10 min. The reaction mixture was diluted 1:3 with H2O prior to use in qPCR. […] The relative abundance of each Nrf2 target gene was determined using the comparative CT method (ΔΔCT). […]
# [2] = system: NF-κB in NIH3T3/NF-κB-luc cell line; test: NF-κB luciferase reporter in NIH3T3/NF-κB-luc; assay type: cell-based; settings: Mus musculus
# Description: (b) TNF-α-induced activation of an NF-κB luciferase reporter in the mouse NIH3T3 cell line.
# NF-κB is a transcription factor that plays a central role in the regulation of many immune and inflammatory responses. […] The NIH3T3/NF-κB-luc cell line maintains a chromosomal integration of a Firefly luciferase reporter construct regulated by eight copies of the NF-κB response element. The effects of these compounds can be quantified by measuring the value of the NF-κB IC50.
# cynomolgus monkeys = settings: for ALP / ALT / AST / Albumin / BUN / Chol / Cr / Glucose / TG / Tot Bil / Tot Prot: monkey, Day 14
# [3] = system: phosphorylation of IκBα in HeLa cells; test: TNF-α-induced phosphorylation of IκBα in HeLa (Western); assay type: cell-based, human; settings: 6 h pretreatment, TNF-α 20 ng/mL 5 min
# Method: Total and phosphorylated levels of IκBα were evaluated by Western blot. Primary IκBα antibodies were from Santa-Cruz (sc-371), pIκBα antibody was from Cell Signaling (9246), actin antibody was from Millipore (MAB 1501). Peroxidase-conjugated affini-pure Goat anti-Rabbit (IgG) and peroxidase-conjugated affini-pure Goat anti-Mouse IgG secondary antibodies were purchased from Jackson ImmunoResearch. Protein blots were developed using ECL, and exposed to X-ray film.
# [4] = Plasma protein binding (ultracentrifugation), minipig
# [5] = system: STAT3 phosphorylation in HeLa cells; test: IL-6-induced STAT3 phosphorylation in HeLa; assay type: cell-based, human; settings: 1 μM, 6 h pretreatment
# [6] = system: aqueous humor protein after paracentesis; test: Ocular inflammation (paracentesis) in rabbits; assay type: in vivo, rabbit; settings: 0.01% RTA 408 in the formulation, instillation
# Method: Each rabbit was given three instillations within 60 min before induction of paracentesis and two instillations within 30 min after induction of paracentesis. Each instillation was 50 μL and given in both eyes. Aqueous humor for 6 animals per time-point was collected 30 min and again 2 h after induction of paracentesis. The amount of inflammation was determined by protein concentration in the aqueous humor.
# [7] = Ocular absorption and distribution in rabbits; assay type: in vivo, rabbit
# Method: Using rabbits, the ocular absorption and systemic pharmacokinetic behavior of RTA 408 was evaluated. RTA 408 was administered topically to the eye once per day for five days.
# cardiovascular function = test: Cardiovascular evaluation in conscious cynomolgus monkeys (telemetry); assay type: in vivo, cynomolgus monkey
# Method: Animals were instrumented with telemetry transmitters for measurement of body temperature, blood pressure, heart rate, and electrocardiogram (ECG) evaluation. Body temperature, systolic, diastolic, and mean arterial blood pressure, heart rate, and ECG parameters (QRS duration and RR, PR, and QT intervals) were monitored continuously from at least 2 h pre-dose until at least 24 h post-dose. ECG tracings were printed at designated time points from the cardiovascular monitoring data and were qualitatively evaluated by a board-certified veterinary cardiologist.
# Observations for morbidity, mortality, injury, and availability of food and water were conducted at least twice daily for all animals. Clinical observations were conducted pre-dose, approximately 4 h post-dose, and following completion of the cardiovascular monitoring period. Body weights were measured and recorded on the day prior to each treatment administration.
compound,measurement,setting,value
"CC1(C)CC[C@]2(NC(=O)C(C)(F)F)CC[C@]3(C)[C@H](C(=O)C=C4[C@@]5(C)C=C(C#N)C(=O)C(C)(C)[C@@H]5CC[C@]43C)[C@@H]2C1 [RTA 408, N-((4aS,6aR,6bS,8aR,12aS,14aR,14bS)-11-cyano-2,2,6a,6b,9,9,12a-heptamethyl-10,14-dioxo-1,2,3,4,4a,5,6,6a,6b,7,8,8a,9,10,12a,14,14a,14b-octadecahydropicen-4a-yl)-2,2-difluoropropanamide]",Lowest concentration at which induction of Nrf2 target genes was evident,[1],15.6 nM
same,IC50,"[2]; not viability normalized, read-out: NIH3T3/NF-κB IC50",1200 nM
same,IC50,"[2]; viability normalized, read-out: NIH3T3/NF-κB IC50, normalized for viability",1400 nM
same,"NQO1, Gst, Gsr enzyme activity in monkey liver and lung (and rodent liver)","cynomolgus monkeys; 10, 30, and 100 mg/kg, 14 days","dose-dependent increases in NQO1, Gst, and Gsr enzyme activity"
same,Clinical chemistry,cynomolgus monkeys; 14 days,Clinical chemistry data suggested no obvious toxicity
same,ALP,cynomolgus monkeys; 10 mg/kg,382 U/L
same,ALT,cynomolgus monkeys; 10 mg/kg,46 U/L
same,AST,cynomolgus monkeys; 10 mg/kg,38 U/L
same,Albumin,cynomolgus monkeys; 10 mg/kg,4 g/dL
same,BUN,cynomolgus monkeys; 10 mg/kg,27 mg/dL
same,Chol,cynomolgus monkeys; 10 mg/kg,144 mg/dL
same,Cr,cynomolgus monkeys; 10 mg/kg,0.68 mg/dL
same,Glucose,cynomolgus monkeys; 10 mg/kg,39 mg/dL
same,TG,cynomolgus monkeys; 10 mg/kg,82 mg/dL
same,Tot Bil,cynomolgus monkeys; 10 mg/kg,0.23 mg/dL
same,Tot Prot,cynomolgus monkeys; 10 mg/kg,7.2 g/dL
same,ALP,cynomolgus monkeys; 30 mg/kg,416 U/L
same,ALT,cynomolgus monkeys; 30 mg/kg,47 U/L
same,AST,cynomolgus monkeys; 30 mg/kg,43 U/L
same,Albumin,cynomolgus monkeys; 30 mg/kg,4 g/dL
same,BUN,cynomolgus monkeys; 30 mg/kg,20 mg/dL
same,Chol,cynomolgus monkeys; 30 mg/kg,122 mg/dL
same,Cr,cynomolgus monkeys; 30 mg/kg,0.58 mg/dL
same,Glucose,cynomolgus monkeys; 30 mg/kg,53 mg/dL
same,TG,cynomolgus monkeys; 30 mg/kg,64 mg/dL
same,Tot Bil,cynomolgus monkeys; 30 mg/kg,0.2 mg/dL
same,Tot Prot,cynomolgus monkeys; 30 mg/kg,7.2 g/dL
same,ALP,cynomolgus monkeys; 100 mg/kg,390 U/L
same,ALT,cynomolgus monkeys; 100 mg/kg,43 U/L
same,AST,cynomolgus monkeys; 100 mg/kg,37 U/L
same,Albumin,cynomolgus monkeys; 100 mg/kg,3.2 g/dL
same,BUN,cynomolgus monkeys; 100 mg/kg,24 mg/dL
same,Chol,cynomolgus monkeys; 100 mg/kg,93 mg/dL
same,Cr,cynomolgus monkeys; 100 mg/kg,0.55 mg/dL
same,Glucose,cynomolgus monkeys; 100 mg/kg,32 mg/dL
same,TG,cynomolgus monkeys; 100 mg/kg,61 mg/dL
same,Tot Bil,cynomolgus monkeys; 100 mg/kg,0.18 mg/dL
same,Tot Prot,cynomolgus monkeys; 100 mg/kg,6 g/dL
same,TNF-α-induced phosphorylation of IκBα,[3],inhibited TNF-α-induced phosphorylation of IκBα in a dose-dependent manner
same,fraction unbound,[4],< 0.01
same,IL-6-induced phosphorylation of STAT3,[5],inhibited phosphorylation of STAT3 induced by IL-6
same,Aqueous humor protein,[6],reduction in aqueous humor protein similar to that of the highest concentration of any of the other reference compounds
same,Ocular tissue distribution,[7]; ocular topical administration,"highest concentrations of the compound were found in the cornea, retina, or iris"
same,Plasma concentration after ocular administration,[7]; topical to the eye once per day for five days,lower plasma concentration of RTA 408 relative to when RTA 408 is administered orally
same,Increase in the corrected QT interval (on average),"cardiovascular function; 100 mg/kg oral, not considered treatment related",1.6%
same,Cardiovascular function,"cardiovascular function; oral, doses up to and including 100 mg/kg",produced no effects on cardiovascular function

# — patent US9701709B2 (REATA PHARMACEUTICALS, INC., priority 2012, dated 2017)
